Data taken from patent US9211310B2, “Use of a Chinese medicine composition in preparing medicaments for treating secondary prevention of myocardial infarction” (TASLY PHARMACEUTICAL GROUP CO., LTD, priority 2010, dated 2015).

System: patients after acute myocardial infarction
Assay: Life quality, Seattle Angina Questionnaire (SAQ), same clinical trial
Format: in vivo, human
Details: 9 months after treatment
From the text: 3508 patients who were in accordance with the diagnostic standards of AMI for 28 days to 2 years and differentiated as Qi deficiency and blood stagnation syndrome by TCM were studied. 0.5 g Chinese medicine composition prepared by the method of EXAMPLE 1 (Coded as QSYQ) was administrated half an hour after meal, 3 times per day.
There were 19 questions in the Seattle angina questionnaire (SAQ), including 5 parts: physical limitation (PL), anginal stability (AS), anginal frequency (AF), treatment satisfaction (TS) and disease perception (DP). After being given necessary explanation by doctors, the questions were answered independently by patients.
They included the overall survival time, angina pectoris score, TCM symptom score and life quality score, where angina pectoris score, TCM symptom score and life quality score were evaluated at randomization, in 1st, 3rd, 6th, 9th, 12th month after treatment and 18th month after follow-up.
All evaluation results of SAQ were described during the period of observation, and Wilcoxon rank sum test was used for inter-group comparison.
The evaluation results in the SAQ were depicted in different observations, and inter-group comparison was tested by Wilcoxon Rank-sum test.

CC(=O)Oc1ccccc1C(=O)O [Control group, aspirine]
SAQ Question 1-4: Not limited, number of patients (FAS): 797
SAQ Question 1-4: Not limited, percent of patients (FAS): (45.70%)
SAQ Question 1-4: Other reasons, number of patients (FAS): 10
SAQ Question 1-4: Other reasons, percent of patients (FAS): (0.57%)
SAQ Question 1-4: Severely limited, number of patients (FAS): 19
SAQ Question 1-4: Severely limited, percent of patients (FAS): (1.09%)
SAQ Question 1-4: Slightly limited, number of patients (FAS): 569
SAQ Question 1-4: Slightly limited, percent of patients (FAS): (32.63%)
SAQ Question 1-5: Mildly limited, number of patients (FAS): 284
SAQ Question 1-5: Mildly limited, percent of patients (FAS): (16.29%)
SAQ Question 1-5: Moderately limited, number of patients (FAS): 103
SAQ Question 1-5: Moderately limited, percent of patients (FAS): (5.91%)
SAQ Question 1-5: Not limited, number of patients (FAS): 825
SAQ Question 1-5: Not limited, percent of patients (FAS): (47.33%)
SAQ Question 1-5: Other reasons, number of patients (FAS): 11
SAQ Question 1-5: Other reasons, percent of patients (FAS): (0.63%)
SAQ Question 1-5: Severely limited, number of patients (FAS): 17
SAQ Question 1-5: Severely limited, percent of patients (FAS): (0.98%)
SAQ Question 1-5: Slightly limited, number of patients (FAS): 503
SAQ Question 1-5: Slightly limited, percent of patients (FAS): (28.86%)
SAQ Question 1-9: Mildly limited, % of cases (FAS): (19.38%)
SAQ Question 1-9: Mildly limited, cases (FAS): 332
SAQ Question 1-9: Moderately limited, % of cases (FAS): (20.61%)
SAQ Question 1-9: Moderately limited, cases (FAS): 353
SAQ Question 1-9: Not limited, % of cases (FAS): (3.91%)
SAQ Question 1-9: Not limited, cases (FAS): 67
SAQ Question 1-9: Other reasons, % of cases (FAS): (5.60%)
SAQ Question 1-9: Other reasons, cases (FAS): 96
SAQ Question 1-9: Severely limited, % of cases (FAS): (33.39%)
SAQ Question 1-9: Severely limited, cases (FAS): 572
SAQ Question 1-9: Slightly limited, % of cases (FAS): (17.10%)
SAQ Question 1-9: Slightly limited, cases (FAS): 293
SAQ 2nd question: Clearly increased, % of cases (PP): (0.63%)
SAQ 2nd question: Clearly increased, cases (PP): 9
SAQ 2nd question: Clearly reduced, % of cases (PP): (26.01%)
SAQ 2nd question: Clearly reduced, cases (PP): 373
SAQ 2nd question: Same, % of cases (PP): (34.94%)
SAQ 2nd question: Same, cases (PP): 501
SAQ 2nd question: Slightly increased, % of cases (PP): (3.21%)
SAQ 2nd question: Slightly increased, cases (PP): 46
SAQ 2nd question: Slightly reduced, % of cases (PP): (35.22%)
SAQ 2nd question: Slightly reduced, cases (PP): 505
SAQ 3rd question: 1-2 times per week, % of cases (PP): (35.22%)
SAQ 3rd question: 1-2 times per week, cases (PP): 505
SAQ 3rd question: 1-3 times per day, % of cases (PP): (3.21%)
SAQ 3rd question: 1-3 times per day, cases (PP): 46
SAQ 3rd question: <1 time per week, % of cases (PP): (26.01%)
SAQ 3rd question: <1 time per week, cases (PP): 373
SAQ 3rd question: No onset, % of cases (PP): (0.00%)
SAQ 3rd question: No onset, cases (PP): 0
SAQ 3rd question: ≧3 times per week, % of cases (PP): (34.94%)
SAQ 3rd question: ≧3 times per week, cases (PP): 501
SAQ 3rd question: ≧4 times per day, % of cases (PP): (0.63%)
SAQ 3rd question: ≧4 times per day, cases (PP): 9
SAQ Question 1-3: Mildly limited, number of patients (PP): 37
SAQ Question 1-3: Mildly limited, percent of patients (PP): (2.57%)
SAQ Question 1-3: Moderately limited, number of patients (PP): 10
SAQ Question 1-3: Moderately limited, percent of patients (PP): (0.70%)
SAQ Question 1-3: Not limited, number of patients (PP): 1187
SAQ Question 1-3: Not limited, percent of patients (PP): (82.60%)
SAQ Question 1-3: Other reasons, number of patients (PP): 6
SAQ Question 1-3: Other reasons, percent of patients (PP): (0.42%)
SAQ Question 1-3: Severely limited, number of patients (PP): 1
SAQ Question 1-3: Severely limited, percent of patients (PP): (0.07%)
SAQ Question 1-3: Slightly limited, number of patients (PP): 196
SAQ Question 1-3: Slightly limited, percent of patients (PP): (13.64%)
SAQ Question 1-4: Mildly limited, number of patients (PP): 208
SAQ Question 1-4: Mildly limited, percent of patients (PP): (14.49%)
SAQ Question 1-4: Moderately limited, number of patients (PP): 63
SAQ Question 1-4: Moderately limited, percent of patients (PP): (4.39%)
SAQ Question 1-4: Not limited, number of patients (PP): 673
SAQ Question 1-4: Not limited, percent of patients (PP): (46.90%)
SAQ Question 1-4: Other reasons, number of patients (PP): 10
SAQ Question 1-4: Other reasons, percent of patients (PP): (0.70%)
SAQ Question 1-4: Severely limited, number of patients (PP): 9
SAQ Question 1-4: Severely limited, percent of patients (PP): (0.63%)
SAQ Question 1-4: Slightly limited, number of patients (PP): 472
